Source: article PMC6017749, “Exploring N-acyl-4-azatetracyclo[5.3.2.0^2,6.0^8,10]dodec-11-enes as 11β-HSD1 Inhibitors” (Molecules : A Journal of Synthetic Chemistry and Natural …, 2018)
Where “and” joins values, the source holds several entries; their conditions need not be identical. Equal entries are not always repeated.

Experiments:
human 11β-HSD1 [1] = target: T1, human 11β-HSD1 (Homo sapiens, UniProt P28845); assay: 11β-HSD1 enzyme inhibition assay in human liver microsomes (3H-cortisone to 3H-cortisol, SPA); type: biochemical; settings: for inhibition at 10 µM: read-out: hHSD1 % inh at 10 µM; for IC50: read-out: hHSD1 IC50
T1 construct: The assay uses human liver microsomes (HLM), where the enzyme is expressed; tissue Celsis In-vitro Technologies; host or cells: mixed sex human liver microsomes
Protocol: A preliminary screen was performed using a human microsome assay with compounds at 10 µM in order to assess their potential inhibition of the target enzyme (Table 2). Percentage of inhibition was determined by measuring the conversion of ^3H-cortisone to ^3H-cortisol by capturing liberated ^3H-cortisol on anti-cortisol (HyTest Ltd., Turku, Finland)-coated scintillation proximity assay beads. The assay uses human liver microsomes (HLM), where the enzyme is expressed, and NADPH as the cofactor needed by the enzyme. Eight of the thirteen new compounds presented 100% inhibition of the human 11β-HSD1 in this single concentration assay, so dose-response curves were performed to get their IC50 values.
11β-HSD1 activity was determined in mixed sex, human liver microsomes (HLM, Celsis In-vitro Technologies) by measuring the conversion of ^3H-cortisone to ^3H-cortisol. Percentage inhibition was determined relative to a no inhibitor control. An amount of 5 μg of HLM were pre-incubated at 37 °C for 15 min with inhibitor and 1 mM NADPH in a final volume of 90 μL Krebs buffer. 10 μL of 200 nM ^3H-cortisone was then added followed by incubation at 37 °C for a further 30 min. The assay was terminated by rapid freezing on dry ice and ^3H-cortisone to ^3H-cortisol conversion determined in 50 μL of the defrosted reaction by capturing liberated ^3H-cortisol on anti-cortisol (HyTest Ltd)-coated scintillation proximity assay beads (protein A-coated YSi, GE Healthcare). Reported values are the average of 1–3 measurements. A nanomolar 11β-HSD1 inhibitor, UE2316, was added as a positive control within in each set of assays.

human 11β-HSD1 [2] = target: T1, human 11β-HSD1; assay: Cellular 11β-HSD1 enzyme inhibition assay (HEK293 stably transfected, cortisol by LC/MS); type: cell-based; settings: for inhibition at 10 µM: HEK293 transfected with human 11β-HSD1, read-out: HEK hHSD1 % inh at 10 µM; for HEK hHSD1 % inh at 10 µM: HEK293 transfected with human 11β-HSD1
Protocol: Those compounds with submicromolar IC50 values (4, 6, 8, 9 and 16) were further evaluated in terms of cellular potency, selectivity over 11β-HSD2, and metabolic stability as follows (Table 2, 5th, 6th, and 7th column, respectively). Cellular potency was assessed using Human Embryonic Kidney 293 (HEK293) cells stably transfected with the 11β-HSD1 gene. Cells were incubated with substrate (cortisone) and percentage of inhibition was determined by measuring the conversion of cortisone to cortisol by LC/MS. The results were in line with the previous results obtained in the microsomal assay.
The cellular 11β-HSD1 enzyme inhibition assay was performed using HEK293 cells stably transfected with the human 11β-HSD1 gene. Cells were incubated with substrate (cortisone) and product (cortisol) was determined by LC/MS. Cells were plated at 2 × 10^4 cells/well in a 96-well poly-D-lysine coated tissue culture microplate (Greiner Bio-one, Monroe, NC, USA) and incubated overnight at 37 °C in 5% CO2 […]. Compounds to be tested were solubilized in 100% dimethylsulfoxide (DMSO) at 10 mM and serially diluted in water and 10% DMSO to final concentration of 10 µM in 10% DMSO. Then 10 µL of each test dilution and 10 µL of 10% DMSO (for low and high control) were dispensed into the well of a new 96-well microplate (Greiner Bio-one). Medium was removed from the cell assay plate and 100 µL of Dulbecco’s Modified Eagle’s Medium DMEM solution (containing 1% penicillin, 1% streptomycin and 300 nM cortisone) added to each well. Cells were incubated for 2 h at 37 °C in 5% CO2 […]. Following incubation, medium was removed from each well into an Eppendorf containing 500 µL of ethyl acetate, mixed by vortex and incubated at r.t. for 5 min. A calibration curve of known concentrations of cortisol in assay medium was also set up and added to 500 µL of ethyl acetate, vortexed and incubated as above. The supernatant of each Eppendorf was removed to a 96-deep-well plate and dried down under […] at 65 °C. Each well was solubilized in 100 µL 70:30 H2O:acetonitrile (ACN) and removed to a 96-well V-bottomed plate for LC/MS analysis. Separation was carried out on a Sunfire 150 × 2.1 mm, […] column using a H2O:ACN gradient profile. Typical retention times were 2.71 min for cortisol and 2.80 min for cortisone. The peak area was calculated and the concentration of each compound determined from the calibration curve. Reported values are the average of 1–3 measurements.

human 11β-HSD2 = target: T2, human 11β-HSD2 (Homo sapiens, UniProt P80365); assay: Cellular 11β-HSD2 enzyme inhibition assay (HEK293 stably transfected); type: cell-based; settings: for inhibition at 10 µM: HEK293, 10 µM, read-out: HEK hHSD2 % inh at 10 µM
T2 construct: stably transfected with the full-length gene coding for human 11β-HSD2; expressed in transfected cells; host or cells: HEK293
T2 sequence (P80365 1-405): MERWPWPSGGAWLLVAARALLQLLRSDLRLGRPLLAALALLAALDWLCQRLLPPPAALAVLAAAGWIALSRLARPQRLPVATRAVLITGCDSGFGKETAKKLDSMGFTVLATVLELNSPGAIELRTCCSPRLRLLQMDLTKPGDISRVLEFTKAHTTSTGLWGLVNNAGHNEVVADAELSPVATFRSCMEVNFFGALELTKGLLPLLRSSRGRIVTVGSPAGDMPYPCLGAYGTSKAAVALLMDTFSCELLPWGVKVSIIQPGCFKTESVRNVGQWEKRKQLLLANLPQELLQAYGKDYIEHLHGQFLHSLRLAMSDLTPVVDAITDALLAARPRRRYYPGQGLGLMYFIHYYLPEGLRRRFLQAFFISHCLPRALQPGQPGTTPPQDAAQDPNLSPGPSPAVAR
Protocol: (§1) Selectivity over 11β-HSD2 was also assessed in a cell-based assay using the same methodology as before (HEK293 stably transfected with the 11β-HSD2 gene). […] Finally, metabolic stability was determined using HLM, which are widely used to predict the degree of primary metabolic clearance in the liver. Each compound was incubated over 30 min with HLM and the percentage of remaining compound after this incubation period was determined by calculating compound concentration after and before by LC/MS.
For measurement of inhibition of 11β-HSD2, HEK293 cells stably transfected with the full-length gene coding for human 11β-HSD2 were used. The protocol was the same as for the cellular 11β-HSD1 enzyme inhibition assay, only changing the substrate, this time cortisol, and the concentrations of the tested compounds, 10, 1, and 0.1 µM. Reported values are the average of 1–3 measurements.

[3] = Microsomal stability assay in human liver microsomes; type: in vitro ADME; settings: remaining compound after 30-min incubation in HLM
Protocol: as §1
The microsomal stability of each compound was determined using human liver microsomes (HLM, Celsis In-vitro Technologies, Baltimore, MD, USA). Microsomes were thawed and diluted to a concentration of 2 mg/mL in 50 mM sodium phosphate buffer pH 7.4. Each compound was diluted in 4 mM NADPH (made in the phosphate buffer above) to a concentration of 10 µM. Two identical incubation plates were prepared to act as a 0 min and a 30 min time point assay. 30 µL of each compound dilution was added in duplicate to the wells of a U-bottom 96-well plate and warmed at 37 °C for approximately 5 min. Verapamil, lidocaine, and propranolol at 10 µM concentration were utilized as reference compounds in this experiment. Microsomes were also pre-warmed at 37 °C before the addition of 30 µL to each well of the plate resulting in a final concentration of 1 mg/mL. The reaction was terminated at the appropriate time point (0 or 30 min) by addition of 60 µL of ice-cold 0.3 M trichloroacetic acid (TCA) per well. The plates were centrifuged for 10 min at 112× g and the supernatant fraction transferred to a fresh U-bottom 96-well plate. Plates were sealed and frozen at −20 °C prior to MS analysis. LC-MS/MS was used to quantify the peak area response of each compound before and after incubation with HLM using MS tune settings established and validated for each compound. These peak intensity measurements were used to calculate the percentage remaining after incubation with HLM for each hit compound. Reported values are the average of 1–3 measurements.

[4] = 10 µM, human liver microsomes, relative to no inhibitor control
[5] = HEK293 transfected with human 11β-HSD2

T1 sequence (P28845 whole entry): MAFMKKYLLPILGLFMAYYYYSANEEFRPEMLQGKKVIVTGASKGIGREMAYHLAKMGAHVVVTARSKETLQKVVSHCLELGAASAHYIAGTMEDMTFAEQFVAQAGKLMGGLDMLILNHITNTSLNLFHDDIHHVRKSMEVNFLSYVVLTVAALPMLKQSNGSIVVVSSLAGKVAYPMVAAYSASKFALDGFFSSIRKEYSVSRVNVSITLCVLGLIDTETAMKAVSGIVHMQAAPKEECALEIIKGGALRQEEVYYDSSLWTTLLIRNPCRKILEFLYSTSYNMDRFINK

SMILES | inhibition at 10 µM (human 11β-HSD1 [1]; [4]) | IC50 (human 11β-HSD1 [1]; human liver microsomes) | inhibition at 10 µM (human 11β-HSD1 [2]) | inhibition at 10 µM (human 11β-HSD2; [5]) | HLM % Parent [3] | melting point | also measured
CC(C)(C)C(=O)N1CC2C3C=CC(C4CC34)C2C1 (centres unmarked) [Compound 6, (4-Azatetracyclo[5.3.2. 0^2,6.0^8,10]dodec-11-en-4-yl)(tert-butyl)methanone] | 100% | 0.666 µM | 41% | 71% | 60% | 91 to 92 °C | 
O=C(c1ccnc(Cl)c1)N1CC2C3C=CC(C4CC34)C2C1 (centres unmarked) [Compound 11, (4-Azatetracyclo[5.3.2. 0^2,6.0^8,10]dodec-11-en-4-yl)(2-chloropyridin-4-yl)methanone] |  |  |  |  |  | 135 to 136 °C | 
O=C(C1CC=CCC1)N1CC2C3C=CC(C4CC34)C2C1 (centres unmarked) [Compound 9, (4-Azatetracyclo[5.3.2. 0^2,6.0^8,10]dodec-11-en-4-yl)(cyclohex-3-en-1-yl)methanone] | 100% | 0.056 µM | 100% | 87% | 44% | 78 to 79 °C | HEK hHSD1 % inh at 10 µM (human 11β-HSD1 [2]): complete inhibition
O=C(c1ccccn1)N1CC2C3C=CC(C4CC34)C2C1 (centres unmarked) [Compound 5, (4-Azatetracyclo[5.3.2.0^2,6.0^8,10]dodec-11-en-4-yl)(pyridin-2-yl)methanone] | 100% | 4.3 µM and 4.27 µM |  |  |  | 110 to 111 °C | 
O=C(c1ccc(N2CCN(c3ccc(C(F)(F)F)cc3)CC2)nc1)N1CC2C3C=CC(C4CC34)C2C1 (centres unmarked) [Compound 15, (4-Azatetracyclo[5.3.2.0^2,6.0^8,10]dodec-11-en-4-yl)[6-[4-(4-trifluoromethyl)phenylpiperazin-1-yl]pyridin-3-yl]methanone] | 100% | 11.6 µM |  |  |  | 157 to 158 °C | 
N#Cc1ccc(N2CCN(c3ccc(C(=O)N4CC5C6C=CC(C7CC67)C5C4)cn3)CC2)cc1 (centres unmarked) [Compound 16, 4-[[4-[5-(4-Azatetracyclo[5.3.2. 0^2,6.0^8,10]dodec-11-en-4-yl)carbonyl]pyridin-2-yl]piperazin-1-yl]benzonitrile] | 100% | 0.377 µM | 100% | 54% | 13% | 160 to 161 °C | HEK hHSD1 % inh at 10 µM (human 11β-HSD1 [2]): complete inhibition; HEK hHSD2 % inh at 10 µM (human 11β-HSD2; 10 µM, HEK293 transfected with human 11β-HSD2): 53%; selectivity index over 11β-HSD2 (human 11β-HSD2; 11β-HSD2 IC50 versus 11β-HSD1 IC50): 30 fold; IC50 (human 11β-HSD2; inferred from 54% inhibition at 10 µM in HEK293 cells, read-out: IC50 against 11β-HSD2): ~10 µM
O=C(c1ccc(N2CCN(c3ccccc3)CC2)nc1)N1CC2C3C=CC(C4CC34)C2C1 (centres unmarked) [Compound 14, (4-Azatetracyclo[5.3.2.0^2,6.0^8,10]dodec-11-en-4-yl)[6-(4-phenylpiperazin-1-yl)pyridin-3-yl]methanone] | 100% | 5.44 µM |  |  |  | 90 to 91 °C | 
O=C(c1csc(-c2cn[nH]c2)c1)N1CCC(F)(c2ccccc2Cl)CC1 [UE2316, reference compound] |  |  |  |  |  |  | IC50 of positive control (human 11β-HSD1 [1]; positive control within each set of assays, normal range per ref 20): within the normal range
CC(=O)N1CCC(C(=O)N2CC3C4C=CC(C5CC45)C3C2)CC1 (centres unmarked) [Compound 13, 1-[[4-(4-Azatetracyclo[5.3.2. 0^2,6.0^8,10]dodec-11-en-4-yl)carbonyl]piperidin-1-yl]ethan-1-one] |  |  |  |  |  | 134 to 135 °C | 
CN1CCC(C(=O)N2CC3C4C=CC(C5CC45)C3C2)CC1 (centres unmarked) [Compound 12, (4-Azatetracyclo[5.3.2. 0^2,6.0^8,10]dodec-11-en-4-yl)(1-methylpiperidin-4-yl)methanone] |  |  |  |  |  | 100 to 101 °C | 
O=C(c1cccs1)N1CC2C3C=CC(C4CC34)C2C1 (centres unmarked) [Compound 7, (4-Azatetracyclo[5.3.2.0^2,6.0^8,10]dodec-11-en-4-yl)(thien-2-yl)methanone] | < 50% |  |  |  |  | 104 to 105 °C | hHSD1 % inh at 10 µM (human 11β-HSD1 [1]; [4]): 49%
Nc1c(Cl)cc(C(=O)N2CC3C4C=CC(C5CC45)C3C2)cc1Cl (centres unmarked) [Compound 8, (4-Amino-3,5-dichlorophenyl)(4-azatetracyclo[5.3.2. 0^2,6.0^8,10]dodec-11-en-4-yl)methanone] | 100% | 0.045 µM | 100% | 86% | 13% | 186 to 187 °C | HEK hHSD1 % inh at 10 µM (human 11β-HSD1 [2]): complete inhibition
O=C(c1ccc(Cl)nc1)N1CC2C3C=CC(C4CC34)C2C1 (centres unmarked) [Compound 10, (4-Azatetracyclo[5.3.2. 0^2,6.0^8,10]dodec-11-en-4-yl) (6-chloropyridin-3-yl)methanone] |  |  |  |  |  | 101 to 102 °C | 
